Measurements from patent publication US11730720B2, “ALK5 inhibitors” (THERAVANCE BIOPHARMA R&D IP, LLC, priority 2018, dated 2023).

Tests used:
[1] = molecular target: T1, recombinant human ALK5 (TGF-βR1) protein (Homo sapiens, UniProt P36897); test: Biochemical ALK5 (TGF-βR1) assay to measure pKi (LANCE Ultra ULight kinase assay); details: apparent pKi, converted from pIC50 using the Cheng-Prusoff equation
T1 construct: purchased Life Technologies PR9075A
T1 sequence (P36897 34-503): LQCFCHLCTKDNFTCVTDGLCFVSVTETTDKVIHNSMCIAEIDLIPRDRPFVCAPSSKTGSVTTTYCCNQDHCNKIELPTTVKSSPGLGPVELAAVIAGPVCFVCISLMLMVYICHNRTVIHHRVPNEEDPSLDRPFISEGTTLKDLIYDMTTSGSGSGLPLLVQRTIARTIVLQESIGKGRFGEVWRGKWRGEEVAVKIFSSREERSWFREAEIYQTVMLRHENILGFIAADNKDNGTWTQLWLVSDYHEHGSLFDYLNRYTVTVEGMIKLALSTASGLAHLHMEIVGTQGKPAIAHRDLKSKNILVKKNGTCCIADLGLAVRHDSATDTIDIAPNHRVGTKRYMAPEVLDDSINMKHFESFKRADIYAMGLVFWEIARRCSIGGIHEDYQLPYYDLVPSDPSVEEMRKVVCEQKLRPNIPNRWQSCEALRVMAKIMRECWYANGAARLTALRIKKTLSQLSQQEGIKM
Procedure, shortened: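 TR-FRET kinase format: compound dose range 10 μM–25 pM equilibrated 60 min with human ALK5 and ULight-labelled topoisomerase 2α peptide in HEPES/MgCl2 buffer pH 7.5 with DTT. Reaction started with ATP (125 μM stock, 5× final), 60 min at 37° C, stopped with EDTA/Eu-anti-phospho antibody; pKi derived from pIC50 via Cheng-Prusoff.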

[2] = test system: TGF-β-stimulated SMAD3 phosphorylation in BEAS-2B cells; test: Cellular ALK5 potency assay, inhibition of TGF-β stimulated pSMAD3 formation in BEAS-2B cells; type: cell-based; details: Homo sapiens, inhibition of TGF-β (10 ng/mL) stimulated pSMAD3 formation, 1 hour compound incubation, read-out: BEAS2B pIC50 (converted)
Procedure, shortened: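 Phospho-SMAD3 was quantified by AlphaLISA in lysates of human lung epithelial BEAS-2B cells. Compound was added 1 h (37 °C, HEPES/BSA-supplemented HBSS) before a 30 min challenge with 10 ng/mL TGF-β. Values are pIC50 relative to stimulated cells without compound.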

Row | Ki [1] [nM] | SMILES | IC50 [2] [nM]
1 | 3.98 to 31.6 | Fc1ccc(-c2[nH]cnc2-c2ccc3ncc(NCCN4CCNCC4)cc3c2)cc1F [Compound 23-5, 6-[5-(3,4-difluorophenyl)-1H-imidazol-4-yl]-N-(2-piperazin-1-ylethyl)quinolin-3-amine] | 200 to 1260
2 | 0.398 to 3.16 | Fc1ccc(Cl)cc1-c1nc2ccccn2c1-c1ccc2ncc(-c3cn[nH]c3)cc2n1 [Compound 3-10, 2-[2-(5-chloro-2-fluoro-phenyl)imidazo[1,2-a]pyridin-3-yl]-7-(1H-pyrazol-4-yl)-1,5-naphthyridine] | 1580 to 10000
3 | 3.98 to 31.6 | CC(C)N1CCN(c2cnc3ccc(-c4c[nH]nc4-c4ccccc4F)nc3c2)CC1 [Compound 11-3, 2-[3-(2-fluorophenyl)-1H-pyrazol-4-yl]-7-(4-isopropylpiperazin-1-yl)-1,5-naphthyridine] | 25.1 to 158
4 | 0.0398 to 0.316 | COCc1cccc(-c2n[nH]cc2-c2ccc3ncc(-c4cnn([C@H]5CCCC[C@H]5N)c4)cc3n2)c1 [Compound 14-18, (1R,2S)-2-[4-[6-[3-[3-(methoxymethyl)phenyl]-1H-pyrazol-4-yl]-1,5-naphthyridin-3-yl]pyrazol-1-yl]cyclohexanamine] | 25.1 to 158
5 | 0.0398 to 0.316 | Fc1ccc(Cl)cc1-c1[nH]cnc1-c1ccc2ncc(NCCN3CCCC3)cc2n1 [Compound 2-26, 6-[5-(5-chloro-2-fluoro-phenyl)-1H-imidazol-4-yl]-N-(2-pyrrolidin-1-ylethyl)-1,5-naphthyridin-3-amine] | ≤ 20
6 | 0.0398 to 0.316 | Fc1ccc(Cl)cc1-c1nc2ccccn2c1-c1ccc2ncc(N3CCNCC3)cc2c1 [Compound 19-4, 6-(2-(5-chloro-2-fluorophenyl)imidazo[1,2-a]pyridin-3-yl)-3-(piperazin-1-yl)quinoline] | 200 to 1260
7 | 0.0398 to 0.316 | Fc1ccc(Cl)cc1-c1n[nH]cc1-c1ccc2ncc(-c3[nH]nc4c3CNCC4)cc2n1 [Compound 1-115, 2-[3-(5-chloro-2-fluoro-phenyl)-1H-pyrazol-4-yl]-7-(4,5,6,7-tetrahydro-2H-pyrazolo[4,3-c]pyridin-3-yl)-1,5-naphthyridine] | 25.1 to 158

The next lines start with the molecule.

Row | SMILES | Ki [1] [nM] | IC50 [2] [nM]
8 | Fc1ccc(Cl)cc1-c1n[nH]cc1-c1ccc2ncc(N3CCn4nc(N5CCN(Cc6ccccc6)CC5)nc4C3)cc2n1 [Compound 1-46, 7-[2-(4-benzylpiperazin-1-yl)-6,8-dihydro-5H-[1,2,4]triazolo[1,5-a]pyrazin-7-yl]-2-[3-(5-chloro-2-fluoro-phenyl)-1H-pyrazol-4-yl]-1,5-naphthyridine] | 0.0398 to 0.316 | 25.1 to 158
9 | CC(C)NCCN1CCN(c2cnc3ccc(-c4c[nH]nc4-c4cc(Cl)ccc4F)nc3c2)CC1 [Compound 1-76, N-[2-[4-[6-[3-(5-chloro-2-fluoro-phenyl)-1H-pyrazol-4-yl]-1,5-naphthyridin-3-yl]piperazin-1-yl]ethyl]propan-2-amine] | ≤ 0.0316 | 25.1 to 158
10 | Fc1ccc(Cl)cc1-c1n[nH]cc1-c1ccc2ncc(NCC3CNCCN3)cc2n1 (stereo not drawn) [Compound 1-26, 6-[3-(5-chloro-2-fluoro-phenyl)-1H-pyrazol-4-yl]-N-(piperazin-2-ylmethyl)-1,5-naphthyridin-3-amine] | 0.0398 to 0.316 | 25.1 to 158
11 | CC(C)N1CC2CN(c3cnc4ccc(-c5c[nH]nc5-c5cc(Cl)ccc5F)nc4c3)CC21 (stereo not drawn) [Compound 1-70, 2-(3-(5-chloro-2-fluorophenyl)-112-pyrazol-4-yl)-7-(6-isopropyl-3,6-diazabicyclo[3.2.0]heptan-3-yl)-1,5-naphthyridine] | 0.0398 to 0.316 | 25.1 to 158
12 | CN(C)C1CC=C(c2cnc3ccc(-c4c[nH]nc4-c4cc(Cl)ccc4F)nc3c2)CC1 (stereo not drawn) [Compound 1-96, 4-(6-(3-(5-chloro-2-fluorophenyl)-1H-pyrazol-4-yl)-1,5-naphthyridin-3-yl)-N,N-dimethylcyclohex-3-en-1-amine] | ≤ 0.0316 | ≤ 20
